Results as given in patent publication US20160038532A1, “Treatment of Multiple Sclerosis With Combination of Laquinimod and Glatiramer Acetate” (TEVA PHARMACEUTICAL INDUSTRIES, LTD., priority 2011, published 2016).
Marks after values point to notes of the source that are not given here.

What was measured:
[1] = Weight of EAE mice (Example 2.1); format: in vivo, C57B1/6 mice; conditions: alone or + GA-blocking
Text: FIG. 1 is a graphical representation of the experimental results from Example 2.1.
The differences were statistically significant (by MANOVA). […] However, when the first signs appeared the mice started to lose weight. On days 16 and 24 the weight of control mice was statistically different from almost all the others (Table 4, FIG. 1B).

MOG-induced EAE [2] = assay: MOG-induced EAE, repeat study (Example 2.3); format: in vivo, C57B1/6 mice; conditions: alone or + GA-blocking 12.5 mg/kg day 0
Protocol: 120 female C57B1/6 mice 8-10 weeks old were used the study. Mice were allocated randomly into 8 groups according to Table 7 below.
24 mg MOG was diluted in 8 ml PBS (3 mg/ml, stock solution). Groups 1, 3, 5 and 7: 4 ml of stock solution was diluted 1:1 with PBS. […] This solution was mixed 1:1 with the stock solution of MOG.
The high dose LAQ (25 mg/10 ml/kg) solution (150 mg in 60 ml DDW) was prepared once weekly and stored in the amber glass at room temperature. The lower LAQ doses were prepared daily. For the dose of 5 mg/kg, 1.6 ml of stock solution were added to 6.4 ml DDW. For the dose 1 mg/kg, […] of the previous solution (intermediate dose) were added to 5.2 ml DDW. The compound was administered by gavage once daily during the hole experiment (30 days) at a volume of 0.2 ml/mouse.
The mice were observed daily from the 10th day post-EAE induction (first injection of MOG) and the EAE clinical signs were scored according to the grades described in the 2 above.

MOG-induced EAE [3] = assay: Summary of studies of GA-blocking + laquinimod in MOG-induced EAE (Examples 2.1-2.3); format: in vivo, mice; conditions: Mus musculus, alone or + GA Blocking, read-out: Mean percent inhibition, Examples 2.1-2.3 summarized
Protocol: FIG. 4 is a graphical representation summarizing experimental results from Examples 2.1-2.3.
At higher doses (5 and 25 mg/kg) laquinimod provides an additive effect over GA-blocking as summarized in Table 9 and shown on FIGS. 4A and 4B.

MOG-induced EAE [4] = assay: MOG-induced EAE with GA blocking and s.c. daily GA (Example 2.5); format: in vivo, C57B1 mice; parameters: key to MMS value / GMS value: EAE clinical grade (Table 2); ≥1 = sick, 6 = dead/sacrificed; conditions: alone or + GA 250 mg/kg s.c. daily 10 d
Protocol: The objective of this study was to test the suppressive effect of laquinimod alone and in combination with Glatiramer acetate in the EAE model in C57B1 mice. […] Laquinimod was administered orally at dose levels of 2.5 and 5.0 mg/kg.
EAE was induced in the mice by the injection of the encephalitogenic emulsion (MOG/CFA). Laquinimod was administered orally for 30 consecutive days.
EAE induction EAE was induced by injecting the encephalitogenic mixture (emulsion) consisting of MOG ([…]). A 0.2 ml emulsion was injected subcutaneously into the flanks of the mice. Pertussis toxin was injected intraperitoneally on the day of induction and 48 hours later (total amount will be 0.150+0.150=0.300 μg/mouse in 0.2 ml dosage volume).
Groups 1, 3-8: 45.9 mg MOG was diluted in […] Normal Saline (3.0 mg/ml MOG stock solution). 12.5 mL of 3.0 mg/ml stock solution was diluted in 12.5 mL Normal Saline to yield 1.5 mg MOG/mL. […] The emulsification was made from equal parts of oil and liquid portions (1:1) in two syringes connected to each other with Leur lock, transferred to insulin syringe and 0.2 ml was injected the right flank of each mouse. The dose of the MOG in all the groups (1 to 8) was […].
The test concentrations of laquinimod were prepared in purified water. For high dose (25.0 mg/kg) 2.5 mg/mL stock solution was prepared (group 8). The 2.5 mg/mL stock solution was diluted 1:5 and 1:10 to yield 0.5 and 0.25 mg/mL for dose levels of 5.0 mg/kg for groups 5 and 7 and 2.5 mg/kg respectively for groups #4 and 6. Laquinimod was administered daily from the initiation of the study, to the respective groups by gavage at a volume of 0.2 ml/mouse.
Every day one tube was thawed and brought to RT.
Clinical signs Scoring of EAE clinical signs was started from Day 10 post EAE induction and was continued daily until Day 30. The clinical signs were recorded according to a grading system described in the Table 2 above.
All mice having scores of 1 and above were considered sick. When the first clinical sign appeared all mice were given food soaked in water, which was spread on different places on the bedding of the cages. An animal which continued to have score 5 for three days was killed on humane grounds and given score 6 on the next day. For calculation purposes, the score of animals that were sacrificed or died (6) was carried forward.

[5] = LAQ 2.5 mg/kg oral daily 30 d, listed as LAQ

Structure (SMILES): CCN(C(=O)c1c(O)c2c(Cl)cccc2n(C)c1=O)c1ccccc1 [laquinimod]
- weight, day 5 after induction ([1]; laquinimod 5 mg/kg/day): 17.5
- weight, day 10 after induction ([1]; laquinimod 5 mg/kg/day): 18.5
- weight, day 16 after induction ([1]; laquinimod 5 mg/kg/day): 18.6
- weight, day 24 after induction ([1]; laquinimod 5 mg/kg/day): 16.5
- weight, day 30 after induction ([1]; laquinimod 5 mg/kg/day): 16.0
- weight, day 5 after induction ([1]; laquinimod 25 mg/kg/day): 17.8
- weight, day 10 after induction ([1]; laquinimod 25 mg/kg/day): 18.9
- weight, day 16 after induction ([1]; laquinimod 25 mg/kg/day): 19.1*
- weight, day 24 after induction ([1]; laquinimod 25 mg/kg/day): 17.5
- weight, day 30 after induction ([1]; laquinimod 25 mg/kg/day): 17.6
- inhibition at 1 mg/kg (MOG-induced EAE [2]; Mus musculus, po, 0 h, laquinimod 1 mg/kg/day gavage, read-out: % inhibition compared to Control (GMS)): -1.2%
- inhibition at 5 mg/kg (MOG-induced EAE [2]; Mus musculus, po, 0 h, laquinimod 5 mg/kg/day gavage, read-out: % inhibition compared to Control (GMS)): 70%
- inhibition at 25 mg/kg (MOG-induced EAE [2]; Mus musculus, po, 0 h, laquinimod 25 mg/kg/day gavage, read-out: % inhibition compared to Control (GMS)): 95%
- Group Mean Score (MOG-induced EAE [2]; laquinimod 1 mg/kg/day gavage): 2.50
- Incidence (MOG-induced EAE [2]; laquinimod 1 mg/kg/day gavage): 15/15
- Mean Disease Duration (MOG-induced EAE [2]; laquinimod 1 mg/kg/day gavage): 14.1 days
- Mean Maximal Score (MOG-induced EAE [2]; laquinimod 1 mg/kg/day gavage): 4.27
- Mean Onset (MOG-induced EAE [2]; laquinimod 1 mg/kg/day gavage): 13.7 days
- Mortality (MOG-induced EAE [2]; laquinimod 1 mg/kg/day gavage): 4/15
- Group Mean Score (MOG-induced EAE [2]; laquinimod 5 mg/kg/day gavage): 0.74**
- Incidence (MOG-induced EAE [2]; laquinimod 5 mg/kg/day gavage): 11/15
- Mean Disease Duration (MOG-induced EAE [2]; laquinimod 5 mg/kg/day gavage): 6.3*** days
- Mean Maximal Score (MOG-induced EAE [2]; laquinimod 5 mg/kg/day gavage): 2.23*
- Mean Onset (MOG-induced EAE [2]; laquinimod 5 mg/kg/day gavage): 21.0*** days
- Mortality (MOG-induced EAE [2]; laquinimod 5 mg/kg/day gavage): 0/15
- % inhibition compared to Control (GMS) (MOG-induced EAE [2]; laquinimod 25 mg/kg/day gavage): 95.1%
- Group Mean Score (MOG-induced EAE [2]; laquinimod 25 mg/kg/day gavage): 0.12***
- Incidence (MOG-induced EAE [2]; laquinimod 25 mg/kg/day gavage): 6/15
- Mean Disease Duration (MOG-induced EAE [2]; laquinimod 25 mg/kg/day gavage): 1.5*** days
- Mean Maximal Score (MOG-induced EAE [2]; laquinimod 25 mg/kg/day gavage): 0.77***
- Mean Onset (MOG-induced EAE [2]; laquinimod 25 mg/kg/day gavage): 24.7*** days
- Mortality (MOG-induced EAE [2]; laquinimod 25 mg/kg/day gavage): 0/15
- inhibition at 2.5 mg/kg (MOG-induced EAE [3]; laquinimod 2.5 mg/kg): 53.6%
- inhibition at 5 mg/kg (MOG-induced EAE [3]; laquinimod 5 mg/kg): 57.3%
- inhibition at 25 mg/kg (MOG-induced EAE [3]; laquinimod 25 mg/kg): 74.9%
- % Inhibition 1 (incidence) (MOG-induced EAE [4]; LAQ 2.5 mg/kg oral daily 30 d): 57.1%
- GMS value (MOG-induced EAE [4]; LAQ 2.5 mg/kg oral daily 30 d): 0.5 ± 0.8
- Incidence (MOG-induced EAE [4]; LAQ 2.5 mg/kg oral daily 30 d): 6/15
- MMS % Inhibition 2 (MOG-induced EAE [4]; LAQ 2.5 mg/kg oral daily 30 d): 55.9%
- MMS value (MOG-induced EAE [4]; LAQ 2.5 mg/kg oral daily 30 d): 1.5 ± 2.1
- Mean Duration (MOG-induced EAE [4]; LAQ 2.5 mg/kg oral daily 30 d): 0.8 ± 2.6 days
- Mean Onset (MOG-induced EAE [4]; LAQ 2.5 mg/kg oral daily 30 d): 30.3 ± 2.6 days
- Mortality (MOG-induced EAE [4]; LAQ 2.5 mg/kg oral daily 30 d): One
- GMS % Inhibition 3 (MOG-induced EAE [4]; [5]): 76.2%
- Mortality (MOG-induced EAE [4]; [5]): 1/15
- GMS % Inhibition 3 (MOG-induced EAE [4]; LAQ 2.5 mg/kg oral daily 30 d, listed as LQ): 76.2%
- % Inhibition 1 (incidence) (MOG-induced EAE [4]; LAQ 5.0 mg/kg oral daily 30 d): 64.3%
- GMS value (MOG-induced EAE [4]; LAQ 5.0 mg/kg oral daily 30 d): 0.6 ± 0.7
- Incidence (MOG-induced EAE [4]; LAQ 5.0 mg/kg oral daily 30 d): 9/15
- MMS % Inhibition 2 (MOG-induced EAE [4]; LAQ 5.0 mg/kg oral daily 30 d): 38.2%
